According to patent US20260042731A1, “(2,4-DICHLOROPHENOXY)ACETIC ACID ANALOGS” (CORTEVA AGRISCIENCE LLC, priority 2022, published 2026):
“And” between values parts separate entries of the source, which are not always exact repeats. Identical values can stand only once. Like-named read-outs stand apart in the source and are kept apart here.

Columns and labels:
[1] = tested on: glyphosate resistant Conyza canadensis (L.) (ERICA), horseweed; experiment: Postemergence herbicide evaluation, growth of Conyza canadensis (ERICA); type: in vivo; conditions: Erigeron canadensis, post-emergence, percent reduction in plant size vs untreated control, read-out: Ave. ERICA; for pest or weed control at 280 g/ha: 280 g ae/ha; for pest or weed control at 560 g/ha: 560 g ae/ha
[2] = Volatility of compounds measured by thermogravimetric analysis (TGA); type: physicochemical
[3] = tested on: Ambrosia artemisiifolia (AMBEL), common ragweed; experiment: Postemergence herbicide evaluation, growth of Ambrosia artemisiifolia (AMBEL); type: in vivo; conditions: Ambrosia artemisiifolia, post-emergence, percent reduction in plant size vs untreated control, read-out: AVE. AMBEL; for pest or weed control at 280 g/ha: 280 g ae/ha; for pest or weed control at 560 g/ha: 560 g ae/ha
[4] = tested on: Amaranthus rudis (AMATA), tall water hemp; experiment: Postemergence herbicide evaluation, growth of Amaranthus rudis (AMATA); type: in vivo; conditions: Amaranthus tuberculatus, post-emergence, percent reduction in plant size vs untreated control, read-out: Ave. AMATA; for pest or weed control at 280 g/ha: 280 g ae/ha; for pest or weed control at 560 g/ha: 560 g ae/ha
[5] = tested on: Chenopodium album (CHEAL), common lambsquarters; experiment: Postemergence herbicide evaluation, growth of Chenopodium album (CHEAL); type: in vivo; conditions: Chenopodium album, post-emergence, percent reduction in plant size vs untreated control, read-out: Ave. CHEAL; for pest or weed control at 280 g/ha: 280 g ae/ha; for pest or weed control at 560 g/ha: 560 g ae/ha
[6] = tested on: Abutilon theophrasti (ABUTH), velvetleaf; experiment: Postemergence herbicide evaluation, growth of Abutilon theophrasti (ABUTH); type: in vivo; conditions: Abutilon theophrasti, post-emergence, percent reduction in plant size vs untreated control, read-out: AVE. ABUTH; for pest or weed control at 280 g/ha: 280 g ae/ha; for pest or weed control at 560 g/ha: 560 g ae/ha
[7] = tested on: weeds ABUTH, AMATA, AMBEL, CHEAL, ERICA; experiment: Postemergence herbicide evaluation, overall average % weed control across ABUTH, AMATA, AMBEL, CHEAL and ERICA; type: in vivo; conditions: post-emergence, average over five weeds, read-out: Overall Ave % Weed Control; for pest or weed control at 280 g/ha: 280 g ae/ha; for pest or weed control at 560 g/ha: 560 g ae/ha
[8] = value marked *: decomposition of the material was observed

Row | Compound | pest or weed control at 280 g/ha ([1]; 168 h, 7 DAA) | pest or weed control at 560 g/ha ([1]; 168 h, 7 DAA) | pest or weed control at 280 g/ha ([1]; 336 h, 14 DAA) | pest or weed control at 560 g/ha ([1]; 336 h, 14 DAA) | pest or weed control at 280 g/ha ([1]; 504 h, 21 DAA) | pest or weed control at 560 g/ha ([1]; 504 h, 21 DAA) | pest or weed control at 280 g/ha ([3]; 168 h, 7 DAA) | pest or weed control at 560 g/ha ([3]; 168 h, 7 DAA) | pest or weed control at 280 g/ha ([3]; 336 h, 14 DAA) | pest or weed control at 560 g/ha ([3]; 336 h, 14 DAA) | pest or weed control at 280 g/ha ([3]; 504 h, 21 DAA) | pest or weed control at 560 g/ha ([3]; 504 h, 21 DAA) | pest or weed control at 280 g/ha ([4]; 168 h, 7 DAA) | pest or weed control at 560 g/ha ([4]; 168 h, 7 DAA) | pest or weed control at 280 g/ha ([4]; 336 h, 14 DAA) | pest or weed control at 560 g/ha ([4]; 336 h, 14 DAA) | pest or weed control at 280 g/ha ([4]; 504 h, 21 DAA) | pest or weed control at 560 g/ha ([4]; 504 h, 21 DAA) | pest or weed control at 280 g/ha ([5]; 168 h, 7 DAA) | pest or weed control at 560 g/ha ([5]; 168 h, 7 DAA) | further results
1 | O=C(COc1ccc(Cl)cc1Cl)Oc1ccccn1 [Compound E11] | 82.5% | 85% | 97.5% | 90% | 100% | 100% | 77.5% | 80% | 70% | 90% | 100% | 100% | 70% | 85% | 90% | 93.5% | 67.5% | 90% | 77.5% | 80% | TGA Data (rate of weight loss, volatility) [2]: 0.4827 µg/min; pest or weed control at 280 g/ha ([5]; 336 h, 14 DAA): 97.5%; pest or weed control at 560 g/ha ([5]; 336 h, 14 DAA): 98%; pest or weed control at 280 g/ha ([5]; 504 h, 21 DAA): 92.5%; pest or weed control at 560 g/ha ([5]; 504 h, 21 DAA): 100%; pest or weed control at 280 g/ha ([6]; 168 h, 7 DAA): 65%; pest or weed control at 560 g/ha ([6]; 168 h, 7 DAA): 82.5%; pest or weed control at 280 g/ha ([6]; 336 h, 14 DAA): 85%; pest or weed control at 560 g/ha ([6]; 336 h, 14 DAA): 97.5%; pest or weed control at 280 g/ha ([6]; 504 h, 21 DAA): 98.5%; pest or weed control at 560 g/ha ([6]; 504 h, 21 DAA): 100%; pest or weed control at 280 g/ha ([7]; 168 h, 7 DAA): 74.5%; pest or weed control at 560 g/ha ([7]; 168 h, 7 DAA): 82.5%; pest or weed control at 280 g/ha ([7]; 336 h, 14 DAA): 88%; pest or weed control at 560 g/ha ([7]; 336 h, 14 DAA): 95.6%; pest or weed control at 280 g/ha ([7]; 504 h, 21 DAA): 91.7%; pest or weed control at 560 g/ha ([7]; 504 h, 21 DAA): 98%
2 | CCN(CC)OC(=O)COc1ccc(Cl)cc1Cl [Compound A21] | 85% | 82.5% | 92% | 94% | 97.5% | 100% | 70% | 70% | 80% | 98% | 100% | 100% | 80% | 85% | 90% | 87.5% | 80% | 100% | 77.5% | 82.5% | TGA Data (rate of weight loss, volatility) [2, 8]: 1.352* μg/min; pest or weed control at 280 g/ha ([5]; 336 h, 14 DAA): 92.5%; pest or weed control at 560 g/ha ([5]; 336 h, 14 DAA): 96.5%; pest or weed control at 280 g/ha ([5]; 504 h, 21 DAA): 97.5%; pest or weed control at 560 g/ha ([5]; 504 h, 21 DAA): 99%; pest or weed control at 280 g/ha ([6]; 168 h, 7 DAA): 60%; pest or weed control at 560 g/ha ([6]; 168 h, 7 DAA): 87.5%; pest or weed control at 280 g/ha ([6]; 336 h, 14 DAA): 67.5%; pest or weed control at 560 g/ha ([6]; 336 h, 14 DAA): 94.5%; pest or weed control at 280 g/ha ([6]; 504 h, 21 DAA): 90%; pest or weed control at 560 g/ha ([6]; 504 h, 21 DAA): 99.5%; pest or weed control at 280 g/ha ([7]; 168 h, 7 DAA): 74.5%; pest or weed control at 560 g/ha ([7]; 168 h, 7 DAA): 81.5%; pest or weed control at 280 g/ha ([7]; 336 h, 14 DAA): 84.4%; pest or weed control at 560 g/ha ([7]; 336 h, 14 DAA): 94.1%; pest or weed control at 280 g/ha ([7]; 504 h, 21 DAA): 93%; pest or weed control at 560 g/ha ([7]; 504 h, 21 DAA): 99.7%
3 | O=C(COc1ccc(Cl)cc1Cl)ONC(=O)C1CCCC1 [Compound A20] | 75% | 80% | 98.5% | 94.5% | 100% | 100% | 72.5% | 85% | 100% | 85% | 100% | 100% | 91.5% | 92.5% | 90% | 90% | 100% | 82.5% | 77.5% | 77.5% | TGA Data (rate of weight loss, volatility) [2]: 1.83 µg/min; TGA Data (rate of weight loss, volatility) [2, 8]: 2.946* μg/min and 1.83* μg/min; pest or weed control at 280 g/ha ([5]; 336 h, 14 DAA): 98%; pest or weed control at 560 g/ha ([5]; 336 h, 14 DAA): 92.5%; pest or weed control at 280 g/ha ([5]; 504 h, 21 DAA): 95%; pest or weed control at 560 g/ha ([5]; 504 h, 21 DAA): 96%; pest or weed control at 280 g/ha ([6]; 168 h, 7 DAA): 60%; pest or weed control at 560 g/ha ([6]; 168 h, 7 DAA): 87.5%; pest or weed control at 280 g/ha ([6]; 336 h, 14 DAA): 79%; pest or weed control at 560 g/ha ([6]; 336 h, 14 DAA): 100%; pest or weed control at 280 g/ha ([6]; 504 h, 21 DAA): 92.5%; pest or weed control at 560 g/ha ([6]; 504 h, 21 DAA): 100%; pest or weed control at 280 g/ha ([7]; 168 h, 7 DAA): 75.3%; pest or weed control at 560 g/ha ([7]; 168 h, 7 DAA): 84.5%; pest or weed control at 280 g/ha ([7]; 336 h, 14 DAA): 93.1%; pest or weed control at 560 g/ha ([7]; 336 h, 14 DAA): 92.4%; pest or weed control at 280 g/ha ([7]; 504 h, 21 DAA): 97.5%; pest or weed control at 560 g/ha ([7]; 504 h, 21 DAA): 95.7%
4 | Cc1cc(NC(=O)COc2ccc(Cl)cc2Cl)n(C)n1 [Compound D14] | 82.5% | 72.5% | 94% | 94% | 98.5% | 100% | 80% | 75% | 72.5% | 97% | 100% | 100% | 75% | 75% | 90% | 91.5% | 72.5% | 92.5% | 72.5% | 75% | TGA Data (rate of weight loss, volatility) [2]: 0.01234 µg/min; pest or weed control at 280 g/ha ([5]; 336 h, 14 DAA): 96.5%; pest or weed control at 560 g/ha ([5]; 336 h, 14 DAA): 90%; pest or weed control at 280 g/ha ([5]; 504 h, 21 DAA): 95%; pest or weed control at 560 g/ha ([5]; 504 h, 21 DAA): 100%; pest or weed control at 280 g/ha ([6]; 168 h, 7 DAA): 37.5%; pest or weed control at 560 g/ha ([6]; 168 h, 7 DAA): 50%; pest or weed control at 280 g/ha ([6]; 336 h, 14 DAA): 45%; pest or weed control at 560 g/ha ([6]; 336 h, 14 DAA): 52.5%; pest or weed control at 280 g/ha ([6]; 504 h, 21 DAA): 52.5%; pest or weed control at 560 g/ha ([6]; 504 h, 21 DAA): 65%; pest or weed control at 280 g/ha ([7]; 168 h, 7 DAA): 69.5%; pest or weed control at 560 g/ha ([7]; 168 h, 7 DAA): 69.5%; pest or weed control at 280 g/ha ([7]; 336 h, 14 DAA): 79.6%; pest or weed control at 560 g/ha ([7]; 336 h, 14 DAA): 85%; pest or weed control at 280 g/ha ([7]; 504 h, 21 DAA): 83.7%; pest or weed control at 560 g/ha ([7]; 504 h, 21 DAA): 91.5%
